According to ChEMBL document CHEMBL3044681, “Piperamides and their derivatives as potential anti-trypanosomal agents” (Med Chem Res, 2009):

system: Trypanosoma cruzi; assay: Antitrypanosomal activity against epimastigote forms of Trypanosoma cruzi Y after 72 hr; format: functional, organism-based; conditions: not given

| SMILES | IC50 |
| --- | --- |
| CC(C)CNC(=O)/C=C/c1ccc2c(c1)OCO2 [FOGARAMIDE] | Not Active |
| O=C(/C=C/CCc1ccc2c(c1)OCO2)N1CCCCC1 [PIPERANINE] | Not Active |
| CC(C)CNC(=O)/C=C/CCc1ccc2c(c1)OCO2 [4,5-DIHYDROPIPERLONGUMININE] | Not Active |
| COC(=O)/C=C/c1cc(OC)c(OC)c(OC)c1 | Not Active |
| COc1cc(/C=C/C(=O)O)cc(OC)c1OC [SINAPIC ACID METHYL ETHER] | Not Active |
| O=C(O)/C=C/C=C/c1ccc2c(c1)OCO2 [PIPERIC ACID] | Not Active |
| COc1cc(CCC(=O)N2CCCCC2=O)cc(OC)c1OC [TETRAHYDROPIPLARTINE] | Not Active |
| O=C(CCCCc1ccc2c(c1)OCO2)N1CCCCC1 [TETRAHYDROPIPERINE] | Not Active |
| CCCCCCCCCC(=O)NCC(C)C [TETRAHYDROPELLITORINE] | Not Active |

same assay, conditions: Trypanosoma cruzi, Y, 72 h; read-out: IC50

| SMILES | IC50 [µM] |
| --- | --- |
| O=C(/C=C/C=C/c1ccc2c(c1)OCO2)N1CCCCC1 [PIPERINE] | 233 |
| COc1cc(/C=C\C(=O)N2CCC=CC2=O)cc(OC)c1OC [(Z)-PIPLARTINE] | 10.5 |
| COc1cc(/C=C/C(=O)N2CCC=CC2=O)cc(OC)c1OC [PIPLARTINE] | 21 |
| CCCCC/C=C/C=C/C(=O)NCC(C)C [PELLITORIN] | 57.1 |
